Molecular target: T1, BRM (Homo sapiens, UniProt P51531)
T1 construct: In-Cell Western Screen of BRM Degradation in SW1573 Cells; endogenous in cells; host or cells: SW1573
Test: In-cell Western screen of BRM degradation in SW1573 cells (Dmax and DC50)
Type: cell-based
Settings: BRM degradation, SW1573 cells; for DC50: read-out: DC50; for Dmax: when tested at the top concentration of between 0.3 and 10 μM, read-out: Dmax (%) (% degraded)
Outline: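 Adherent SW1573 cultures exposed to test compounds for 18-20 h were processed for in-cell Western after PFA fixation and detergent permeabilization. BRM degradation was reported as Dmax and DC50.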

T1 sequence (P51531 whole entry): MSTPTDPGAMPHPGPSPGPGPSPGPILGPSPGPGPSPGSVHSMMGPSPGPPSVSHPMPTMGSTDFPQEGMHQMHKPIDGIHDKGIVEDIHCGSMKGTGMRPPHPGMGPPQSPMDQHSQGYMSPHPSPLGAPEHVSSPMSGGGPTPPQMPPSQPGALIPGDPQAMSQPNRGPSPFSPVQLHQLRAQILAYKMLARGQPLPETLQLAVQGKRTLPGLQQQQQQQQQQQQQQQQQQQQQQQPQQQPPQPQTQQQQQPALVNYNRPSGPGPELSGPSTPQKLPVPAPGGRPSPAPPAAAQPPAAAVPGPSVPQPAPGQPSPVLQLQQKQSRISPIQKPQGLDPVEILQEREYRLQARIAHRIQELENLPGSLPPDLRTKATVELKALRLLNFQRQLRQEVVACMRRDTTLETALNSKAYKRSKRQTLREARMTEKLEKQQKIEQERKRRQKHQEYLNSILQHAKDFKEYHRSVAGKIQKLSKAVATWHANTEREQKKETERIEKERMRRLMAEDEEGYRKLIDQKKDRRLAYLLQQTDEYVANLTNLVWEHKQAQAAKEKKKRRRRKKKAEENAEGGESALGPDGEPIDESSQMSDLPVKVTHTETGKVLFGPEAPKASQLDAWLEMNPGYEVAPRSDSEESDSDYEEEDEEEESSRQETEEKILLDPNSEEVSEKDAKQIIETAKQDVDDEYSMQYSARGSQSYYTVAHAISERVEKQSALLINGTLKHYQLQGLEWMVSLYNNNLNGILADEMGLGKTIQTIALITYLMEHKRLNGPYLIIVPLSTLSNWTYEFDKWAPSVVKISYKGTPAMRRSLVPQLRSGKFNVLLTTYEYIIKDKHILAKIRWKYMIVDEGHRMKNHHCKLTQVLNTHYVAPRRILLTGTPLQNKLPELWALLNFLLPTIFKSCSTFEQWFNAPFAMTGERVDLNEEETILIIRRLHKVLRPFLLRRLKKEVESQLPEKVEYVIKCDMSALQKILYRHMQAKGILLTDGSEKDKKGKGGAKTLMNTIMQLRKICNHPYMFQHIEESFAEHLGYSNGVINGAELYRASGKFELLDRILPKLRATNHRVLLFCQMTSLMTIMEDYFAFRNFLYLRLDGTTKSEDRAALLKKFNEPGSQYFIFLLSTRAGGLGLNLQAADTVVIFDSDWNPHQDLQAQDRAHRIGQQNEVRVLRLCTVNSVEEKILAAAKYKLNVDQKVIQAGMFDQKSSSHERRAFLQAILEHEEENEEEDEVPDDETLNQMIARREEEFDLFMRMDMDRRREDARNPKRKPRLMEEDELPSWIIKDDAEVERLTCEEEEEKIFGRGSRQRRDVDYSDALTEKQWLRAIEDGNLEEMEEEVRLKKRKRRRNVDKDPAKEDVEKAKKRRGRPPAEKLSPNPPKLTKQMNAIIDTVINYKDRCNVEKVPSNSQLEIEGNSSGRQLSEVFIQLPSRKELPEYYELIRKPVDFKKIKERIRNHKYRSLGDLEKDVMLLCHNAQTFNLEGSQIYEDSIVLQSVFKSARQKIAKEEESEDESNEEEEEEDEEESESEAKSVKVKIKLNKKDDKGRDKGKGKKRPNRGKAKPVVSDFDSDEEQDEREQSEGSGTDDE

Compound | DC50 [nM] | Dmax [%]
Cc1ncsc1-c1ccc(CNC(=O)[C@@H]2C[C@@H](O)CN2C(=O)[C@H](c2cc(OCCOCCOCCOCCOc3cc(N4C5CCC4CN(c4cc(-c6ccccc6O)nnc4N)C5)ccn3)no2)C(C)C)cc1 [compound 29, (2S,4R)-1-[(2S)-2-(3-[[1-(4-[3-[3-amino-6-(2-hydroxyphenyl)pyridazin-4-yl]-3,8-diazabicyclo[3.2.1]octan-8-yl]pyridin-2-yl)-1,4,7,10-tetraoxadodecan-12-yl]oxy]-1,2-oxazol-5-yl)-3-methylbutanoyl]-4-hydroxy-N-[[4-(4-methyl-1,3-thiazol-5-yl)phenyl]methyl]pyrrolidine-2-carboxamide] | 10 to 30 | > 75
Cc1ncsc1-c1ccc(CNC(=O)[C@@H]2C[C@@H](O)CN2C(=O)[C@@H](c2cc(OCCOCCOCCOCCOc3cc(N4C5CCC4CN(c4cc(-c6ccccc6O)nnc4N)C5)ccn3)no2)C(C)C)cc1 [compound 30, (2S,4R)-1-[(2R)-2-(3-[[1-(4-[3-[3-amino-6-(2-hydroxyphenyl)pyridazin-4-yl]-3,8-diazabicyclo[3.2.1]octan-8-yl]pyridin-2-yl)-1,4,7,10-tetraoxadodecan-12-yl]oxy]-1,2-oxazol-5-yl)-3-methylbutanoyl]-4-hydroxy-N-[[4-(4-methyl-1,3-thiazol-5-yl)phenyl]methyl]pyrrolidine-2-carboxamide] | < 2.5 | > 75
Cc1ncsc1-c1ccc(CNC(=O)[C@@H]2C[C@@H](O)CN2C(=O)[C@@H](NC(=O)Cc2ccc(N3CCN(CCOCCCc4cc(N5C6CCC5CN(c5cc(-c7ccccc7O)nnc5N)C6)ccn4)CC3)nc2)C(C)(C)C)cc1 [compound 31, (2S,4R)-1-((2S)-2-(2-(6-(4-(2-(3-(4-(3-(3-amino-6-(2-hydroxyphenyl)pyridazin-4-yl)-3,8-diazabicyclo[3.2.1]octan-8-yl)pyridin-2-yl)propoxy)ethyl)piperazin-1-yl)pyridin-3-yl)acetamido)-3,3-dimethylbutanoyl)-4-hydroxy-N-(4-(4-methylthiazol-5-yl)benzyl)pyrrolidine-2-carboxamide] | 10 to 30 | > 75
Cc1ncsc1-c1ccc(CNC(=O)[C@@H]2C[C@@H](O)CN2C(=O)[C@@H](NC(=O)COCCOCCOCCOc2cccc(N3C[C@H]4C[C@@H]3CN4c3cc(-c4ccccc4O)nnc3N)n2)C(C)(C)C)cc1 [compound 32, (2S,4R)-1-[(2S)-2-(1-[6-[(1R,4R)-5-[3-amino-6-(2-hydroxyphenyl)pyridazin-4-yl]-2,5-diazabicyclo[2.2.1]heptan-2-yl]pyridin-2-yl]-1,4,7,10-tetraoxadodecan-12-amido)-3,3-dimethylbutanoyl]-4-hydroxy-N-[[4-(4-methyl-1,3-thiazol-5-yl)phenyl]methyl]pyrrolidine-2-carboxamide] | > 30 | > 75
Cc1ncsc1-c1ccc(CNC(=O)[C@@H]2C[C@@H](O)CN2C(=O)[C@@H](NC(=O)COCCCc2ccc(C(C)n3cc(-c4cc(-c5ccccc5O)nnc4N)cn3)cc2)C(C)(C)C)cc1 (stereo partly drawn) [compound 33, (2S,4R)-1-[(2S)-2-(2-[3-[4-(1-[4-[3-amino-6-(2-hydroxyphenyl)pyridazin-4-yl]-1H-pyrazol-1-yl]ethyl)phenyl]propoxy]acetamido)-3,3-dimethylbutanoyl]-4-hydroxy-N-[[4-(4-methyl-1,3-thiazol-5-yl)phenyl]methyl]pyrrolidine-2-carboxamide] | 2.5 to 10 | > 75
Cc1ncsc1-c1ccc(CNC(=O)[C@@H]2C[C@@H](O)CN2C(=O)[C@@H](NC(=O)COCCOCCOCCOc2cncc(N3C4CCC3CN(c3cc(-c5ccccc5O)nnc3N)C4)n2)C(C)(C)C)cc1 [compound 34, (2S,4R)-1-[(2S)-2-[1-(6-[3-[3-amino-6-(2-hydroxyphenyl)pyridazin-4-yl]-3,8-diazabicyclo[3.2.1]octan-8-yl]pyrazin-2-yl)-1,4,7,10-tetraoxadodecan-12-amido]-3,3-dimethylbutanoyl]-4-hydroxy-N-[[4-(4-methyl-1,3-thiazol-5-yl)phenyl]methyl]pyrrolidine-2-carboxamide] | > 30 | > 75
Cc1ncsc1-c1ccc([C@H](C)NC(=O)[C@@H]2C[C@@H](O)CN2C(=O)[C@@H](NC(=O)COCCOCCOCCOCCOCCOCCOCCOc2cc(N3C4CCC3CN(c3cc(-c5ccccc5O)nnc3N)C4)ccn2)C(C)(C)C)cc1 [compound 35, (2S,4R)-1-[(2S)-2-[1-(4-[3-[3-amino-6-(2-hydroxyphenyl)pyridazin-4-yl]-3,8-diazabicyclo[3.2.1]octan-8-yl]pyridin-2-yl)-1,4,7,10,13,16,19,22-octaoxatetracosan-24-amido]-3,3-dimethylbutanoyl]-4-hydroxy-N-[(1S)-1-[4-(4-methyl-1,3-thiazol-5-yl)phenyl]ethyl]pyrrolidine-2-carboxamide] | 2.5 to 10 | > 75
Cc1ncsc1-c1ccc(CNC(=O)[C@@H]2C[C@@H](O)CN2C(=O)[C@H](c2cc(OCCOCCOCCCCN3CCOC4(CCN(c5cc(-c6ccccc6O)nnc5N)CC4)C3)no2)C(C)C)cc1 [compound 36, (2S,4R)-1-[(2S)-2-(3-[2-[2-(4-[9-[3-amino-6-(2-hydroxyphenyl)pyridazin-4-yl]-1-oxa-4,9-diazaspiro[5.5]undecan-4-yl]butoxy)ethoxy]ethoxy]-1,2-oxazol-5-yl)-3-methylbutanoyl]-4-hydroxy-N-[[4-(4-methyl-1,3-thiazol-5-yl)phenyl]methyl]pyrrolidine-2-carboxamide] | > 30 | 50 to 75
Cc1ncsc1-c1ccc(CNC(=O)[C@@H]2C[C@@H](O)CN2C(=O)[C@@H](c2cc(OCCOCCOCCCCN3CCOC4(CCN(c5cc(-c6ccccc6O)nnc5N)CC4)C3)no2)C(C)C)cc1 [compound 37, (2S,4R)-1-((R)-2-(3-(2-(2-(4-(9-(3-amino-6-(2-hydroxyphenyl)pyridazin-4-yl)-1-oxa-4,9-diazaspiro[5.5]undecan-4-yl)butoxy)ethoxy)ethoxy)isoxazol-5-yl)-3-methylbutanoyl)-4-hydroxy-N-(4-(4-methylthiazol-5-yl)benzyl)pyrrolidine-2-carboxamide] | 2.5 to 10 | > 75
Cc1ncsc1-c1ccc(CNC(=O)[C@@H]2C[C@@H](O)CN2C(=O)[C@@H](NC(=O)COCCOCCN2CCN(CCCc3cc(N4C5CCC4CN(c4cc(-c6ccccc6O)nnc4N)C5)ccn3)CC2)C(C)(C)C)cc1 [compound 40, (2S,4R)-1-[(2S)-2-[2-[2-(2-[4-[3-(4-[3-[3-amino-6-(2-hydroxyphenyl)pyridazin-4-yl]-3,8-diazabicyclo[3.2.1]octan-8-yl]pyridin-2-yl)propyl]piperazin-1-yl]ethoxy)ethoxy]acetamido]-3,3-dimethylbutanoyl]-4-hydroxy-N-[[4-(4-methyl-1,3-thiazol-5-yl)phenyl]methyl]pyrrolidine-2-carboxamide] | > 30 | < 50
Cc1ncsc1-c1ccc(CNC(=O)[C@@H]2C[C@@H](O)CN2C(=O)[C@H](c2cc(OCCN3CCN(CCOc4cc(N5C6CCC5CN(c5cc(-c7ccccc7O)nnc5N)C6)ccn4)CC3)no2)C(C)C)cc1 [compound 41, (2S,4R)-1-[(2S)-2-[3-[2-(4-[2-[(4-[3-[3-amino-6-(2-hydroxyphenyl)pyridazin-4-yl]-3,8-diazabicyclo[3.2.1]octan-8-yl]pyridin-2-yl)oxy]ethyl]piperazin-1-yl)ethoxy]-1,2-oxazol-5-yl]-3-methylbutanoyl]-4-hydroxy-N-[[4-(4-methyl-1,3-thiazol-5-yl)phenyl]methyl]pyrrolidine-2-carboxamide] | 10 to 30 | > 75
Cc1ncsc1-c1ccc(CNC(=O)[C@@H]2C[C@@H](O)CN2C(=O)[C@@H](c2cc(OCCN3CCN(CCOc4cc(N5C6CCC5CN(c5cc(-c7ccccc7O)nnc5N)C6)ccn4)CC3)no2)C(C)C)cc1 [compound 42, (2S,4R)-1-[(2R)-2-[3-[2-(4-[2-[(4-[3-[3-amino-6-(2-hydroxyphenyl)pyridazin-4-yl]-3,8-diazabicyclo[3.2.1]octan-8-yl]pyridin-2-yl)oxy]ethyl]piperazin-1-yl)ethoxy]-1,2-oxazol-5-yl]-3-methylbutanoyl]-4-hydroxy-N-[[4-(4-methyl-1,3-thiazol-5-yl)phenyl]methyl]pyrrolidine-2-carboxamide] | < 2.5 | > 75
Cc1ncsc1-c1ccc(CNC(=O)[C@@H]2C[C@@H](O)CN2C(=O)[C@H](c2cc(OCCN3CCN(CCCc4cc(N5C6CCC5CN(c5cc(-c7ccccc7O)nnc5N)C6)ccn4)CC3)no2)C(C)C)cc1 [compound 43, (2S,4R)-1-[(2S)-2-[3-(2-[4-[3-(4-[3-[3-amino-6-(2-hydroxyphenyl)pyridazin-4-yl]-3,8-diazabicyclo[3.2.1]octan-8-yl]pyridin-2-yl)propyl]piperazin-1-yl]ethoxy)-1,2-oxazol-5-yl]-3-methylbutanoyl]-4-hydroxy-N-[[4-(4-methyl-1,3-thiazol-5-yl)phenyl]methyl]pyrrolidine-2-carboxamide] |  | < 50
Cc1ncsc1-c1ccc(CNC(=O)[C@@H]2C[C@@H](O)CN2C(=O)[C@@H](c2cc(OCCN3CCN(CCCc4cc(N5C6CCC5CN(c5cc(-c7ccccc7O)nnc5N)C6)ccn4)CC3)no2)C(C)C)cc1 [compound 44, (2S,4R)-1-[(2R)-2-[3-(2-[4-[3-(4-[3-[3-amino-6-(2-hydroxyphenyl)pyridazin-4-yl]-3,8-diazabicyclo[3.2.1]octan-8-yl]pyridin-2-yl)propyl]piperazin-1-yl]ethoxy)-1,2-oxazol-5-yl]-3-methylbutanoyl]-4-hydroxy-N-[[4-(4-methyl-1,3-thiazol-5-yl)phenyl]methyl]pyrrolidine-2-carboxamide] | 10 to 30 | > 75

Source: US12539292B2, “BRM targeting compounds and associated methods of use” (Arvinas Operations, Inc., priority 2018, dated 2026)
